The values that follow come from patent US20240327364A1, “THERAPEUTIC TARGETING OF GPR68 TO INDUCE FERROPTOSIS” (University Of Maryland, Baltimore, priority 2023, published 2024).

The structures appear in SMILES notation. Read-outs that look alike come from different tables or passages of the source.

The target in one assay is T1, OX1 (Homo sapiens, UniProt O43613).
T1 construct: host or cells: Chem-1 cells expressing Gα15
Nature of the assay: GPCR Profiler. The format is cell-based.

A further assay has as its target T2, ABL1-nonphosphorylated (Homo sapiens, UniProt P00519).
T2 construct: purchased DiscoveRx
Nature of the assay: KinomeScan. The format is binding. As to conditions: read-out: % Control.

The target in a further assay is T3, CDC2L1 (Homo sapiens, UniProt P21127).
T3 construct: purchased DiscoveRx (KinomeScan service)
T3 sequence (P21127 whole entry): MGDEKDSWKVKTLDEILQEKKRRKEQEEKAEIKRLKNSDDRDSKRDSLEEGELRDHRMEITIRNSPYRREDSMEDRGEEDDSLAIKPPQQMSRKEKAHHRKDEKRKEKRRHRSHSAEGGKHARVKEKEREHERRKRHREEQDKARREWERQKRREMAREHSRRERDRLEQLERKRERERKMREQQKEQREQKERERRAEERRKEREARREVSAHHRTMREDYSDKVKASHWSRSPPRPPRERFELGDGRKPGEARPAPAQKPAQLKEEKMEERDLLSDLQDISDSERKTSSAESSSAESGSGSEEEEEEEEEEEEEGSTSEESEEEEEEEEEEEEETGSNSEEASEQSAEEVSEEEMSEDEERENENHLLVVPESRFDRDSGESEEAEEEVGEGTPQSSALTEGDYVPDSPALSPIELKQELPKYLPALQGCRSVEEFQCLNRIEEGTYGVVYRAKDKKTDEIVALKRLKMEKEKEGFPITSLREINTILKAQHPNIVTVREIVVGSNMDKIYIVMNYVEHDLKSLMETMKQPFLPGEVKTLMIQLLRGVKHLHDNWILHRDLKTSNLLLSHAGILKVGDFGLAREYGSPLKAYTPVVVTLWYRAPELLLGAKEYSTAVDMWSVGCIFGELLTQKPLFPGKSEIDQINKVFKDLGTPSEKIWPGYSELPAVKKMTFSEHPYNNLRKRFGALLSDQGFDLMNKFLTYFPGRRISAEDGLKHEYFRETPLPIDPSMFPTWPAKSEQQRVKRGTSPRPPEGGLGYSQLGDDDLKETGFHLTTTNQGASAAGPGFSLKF
Nature of the assay: KinomeScan. The format is binding. As to conditions: read-out: % Control.

For the next assay, the target named is T4, PRKCI (Homo sapiens, UniProt P41743).
T4 construct: purchased DiscoveRx (Fremont, CA)
As to the kind of experiment: KinomeScan. The assay is classed as binding. As to conditions: read-out: % Control.

In another assay the target is T5, IGF1R (Homo sapiens, UniProt P08069).
T5 construct: purchased DiscoveRx (Fremont, CA)
Nature of the assay: KinomeScan. The format is binding. Particulars: read-out: % Control.

Another assay deals with T6, NEK1 (Homo sapiens, UniProt Q96PY6).
T6 construct: purchased DiscoveRx
T6 sequence (Q96PY6 whole entry): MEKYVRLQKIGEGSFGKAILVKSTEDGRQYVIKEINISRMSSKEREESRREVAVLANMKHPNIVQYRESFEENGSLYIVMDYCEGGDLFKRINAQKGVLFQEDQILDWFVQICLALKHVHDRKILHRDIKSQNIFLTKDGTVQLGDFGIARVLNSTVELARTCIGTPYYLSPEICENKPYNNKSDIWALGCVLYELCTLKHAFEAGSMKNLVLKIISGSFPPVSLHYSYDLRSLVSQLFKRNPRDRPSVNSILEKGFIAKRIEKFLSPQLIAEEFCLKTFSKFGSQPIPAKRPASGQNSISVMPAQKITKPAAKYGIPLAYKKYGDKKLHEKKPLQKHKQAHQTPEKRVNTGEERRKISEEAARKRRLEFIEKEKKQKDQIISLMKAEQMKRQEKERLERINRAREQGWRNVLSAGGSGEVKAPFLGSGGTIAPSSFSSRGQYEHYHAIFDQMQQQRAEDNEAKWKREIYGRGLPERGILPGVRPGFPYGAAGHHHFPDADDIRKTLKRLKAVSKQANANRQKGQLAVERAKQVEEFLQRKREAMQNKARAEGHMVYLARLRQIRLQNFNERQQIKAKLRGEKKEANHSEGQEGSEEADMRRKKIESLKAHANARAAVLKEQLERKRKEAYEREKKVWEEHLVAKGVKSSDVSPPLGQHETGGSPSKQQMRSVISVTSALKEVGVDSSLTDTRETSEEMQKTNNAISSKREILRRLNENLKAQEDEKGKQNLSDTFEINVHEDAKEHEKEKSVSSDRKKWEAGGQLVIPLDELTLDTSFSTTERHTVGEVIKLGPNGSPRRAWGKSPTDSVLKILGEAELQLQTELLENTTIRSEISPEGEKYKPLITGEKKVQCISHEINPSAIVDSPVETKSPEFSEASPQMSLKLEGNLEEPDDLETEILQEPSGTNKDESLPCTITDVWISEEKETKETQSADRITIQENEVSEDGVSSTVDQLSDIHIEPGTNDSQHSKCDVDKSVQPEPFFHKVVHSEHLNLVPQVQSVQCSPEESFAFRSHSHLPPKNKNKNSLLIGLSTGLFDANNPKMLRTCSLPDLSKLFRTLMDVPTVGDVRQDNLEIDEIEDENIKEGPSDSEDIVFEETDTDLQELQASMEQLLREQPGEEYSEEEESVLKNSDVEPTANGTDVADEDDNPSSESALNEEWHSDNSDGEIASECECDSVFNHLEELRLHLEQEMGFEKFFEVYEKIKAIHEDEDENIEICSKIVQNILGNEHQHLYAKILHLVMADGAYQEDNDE
Nature of the assay: KinomeScan. The format is binding. As to conditions: read-out: % Control.

For the next assay, the target named is T7, MC2 (Homo sapiens, UniProt Q01718).
T7 construct: host or cells: Chem-1 cells with promiscuous Gα15
T7 sequence (Q01718 whole entry): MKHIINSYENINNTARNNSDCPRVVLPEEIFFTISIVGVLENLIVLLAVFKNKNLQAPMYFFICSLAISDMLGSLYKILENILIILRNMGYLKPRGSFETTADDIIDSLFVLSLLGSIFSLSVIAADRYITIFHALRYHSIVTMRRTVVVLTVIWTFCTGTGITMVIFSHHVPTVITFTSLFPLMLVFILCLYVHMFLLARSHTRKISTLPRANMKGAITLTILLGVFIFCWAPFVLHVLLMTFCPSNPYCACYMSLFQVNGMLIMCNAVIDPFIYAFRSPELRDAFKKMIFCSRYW
T7 sequence (Q8TCY5 whole entry partner): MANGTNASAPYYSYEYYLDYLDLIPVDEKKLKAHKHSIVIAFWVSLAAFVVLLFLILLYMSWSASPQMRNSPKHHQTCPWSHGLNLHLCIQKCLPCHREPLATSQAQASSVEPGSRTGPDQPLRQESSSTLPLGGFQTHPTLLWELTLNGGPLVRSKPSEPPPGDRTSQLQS
Nature of the assay: GPCR Profiler. The format is cell-based.

The next assay deals with T8, GSK3A (Homo sapiens, UniProt P49840).
T8 construct: purchased DiscoveRx (Fremont, CA)
T8 sequence (P49840 whole entry): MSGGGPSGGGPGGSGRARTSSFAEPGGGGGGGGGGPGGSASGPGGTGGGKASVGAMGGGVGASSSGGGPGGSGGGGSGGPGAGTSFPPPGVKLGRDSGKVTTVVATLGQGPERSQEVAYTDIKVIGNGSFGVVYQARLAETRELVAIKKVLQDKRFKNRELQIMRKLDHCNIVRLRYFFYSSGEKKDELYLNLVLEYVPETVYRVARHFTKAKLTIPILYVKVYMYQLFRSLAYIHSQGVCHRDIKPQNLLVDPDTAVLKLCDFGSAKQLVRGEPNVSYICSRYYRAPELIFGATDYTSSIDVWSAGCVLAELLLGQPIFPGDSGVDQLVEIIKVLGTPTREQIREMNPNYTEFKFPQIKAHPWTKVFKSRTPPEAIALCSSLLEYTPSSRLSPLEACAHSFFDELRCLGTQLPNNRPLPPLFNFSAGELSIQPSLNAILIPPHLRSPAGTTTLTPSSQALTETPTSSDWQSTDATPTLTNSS
As to the kind of experiment: KinomeScan. The assay is classed as binding. As to conditions: read-out: % Control.

Another assay has as its target CSNK2A2 (Homo sapiens, UniProt P19784). As to the kind of experiment: KinomeScan. Particulars: read-out: % Control. The assay is classed as binding.
In another assay the target is T9, DYRK1A (Homo sapiens, UniProt Q13627).
T9 construct: purchased DiscoveRx (Fremont, CA), KinomeScan service
As to the kind of experiment: KinomeScan. Particulars: read-out: % Control. The assay is classed as binding.

The target in the next assay is T10, ROCK1 (Homo sapiens, UniProt Q13464).
T10 construct: purchased DiscoveRx (Fremont, CA)
As to the kind of experiment: KinomeScan. The format is binding. Particulars: read-out: % Control.

In a further assay the target is T11, GCGR (Homo sapiens, UniProt P47871).
T11 construct: host or cells: Chem-1 cells expressing Gα15
T11 sequence (P47871 26-477): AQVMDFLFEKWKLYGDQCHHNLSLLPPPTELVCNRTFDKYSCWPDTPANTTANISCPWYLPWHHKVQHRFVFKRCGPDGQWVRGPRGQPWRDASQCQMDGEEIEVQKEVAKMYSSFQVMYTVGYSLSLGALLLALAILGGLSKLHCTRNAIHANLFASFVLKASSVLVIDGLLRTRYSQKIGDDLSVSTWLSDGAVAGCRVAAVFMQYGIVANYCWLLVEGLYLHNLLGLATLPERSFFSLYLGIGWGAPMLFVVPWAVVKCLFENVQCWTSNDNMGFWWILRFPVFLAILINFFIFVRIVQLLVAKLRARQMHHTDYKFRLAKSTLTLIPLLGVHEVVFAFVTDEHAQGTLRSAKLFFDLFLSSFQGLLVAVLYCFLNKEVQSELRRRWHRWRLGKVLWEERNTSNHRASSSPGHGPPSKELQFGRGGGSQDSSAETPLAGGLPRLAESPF
Nature of the assay: GPCR Profiler. The assay is classed as cell-based.

A further assay addresses T12, PAC1 (Homo sapiens, UniProt P41586).
T12 construct: host or cells: Chem-1 cells with Gα15
Nature of the assay: GPCR Profiler. The format is cell-based.

Another assay has as its system NCI-H460. As to the kind of experiment: Cell Titer-Glo viability, Lung cancer, Large cell. The format is cell-based. As for the experimental part:
(§1) OGM2 kills wide variety of cancer cell types. Cell sensitivity can be classified in to Very Sensitive (LC50<2 μM), Sensitive (LC50=2 to 10 μM), Mildly Sensitive (LC50>10 μM), and Refractory (no killing at 10 μM). The listed established cell were incubated with OGM2 at 2 μM or 10 μM for 72 hours under standard cell culture conditions, and relative cell number was assessed using Cell Titer-Glo Luminescent Cell Viability Assay (Promega™) following the manufacturer's instructions. Luminescence was determined using a Cytation 5 reader and Gen5 software package (BioTek™).
(§2) Cancer cells, which are very sensitive to killing by OGM2 (LCs <2 μM), with reported mRNA expression of GPR68 and the related proton sensing receptor GPR4. LC50's (concentrations causing 50% lethality) were determined using CellTiter-Glo (Promega™, G7570). Cells were plated in 12-well plates (CELLTREAT Scientific Products, 229112) in 1 ml of DMEM with high glucose, GlutaMAX, HEPES, or RPMI 1640 with Penicillin-Streptomycin (ThermoFisher™, 10564029, 11875119 and 15140122) and 10% FBS. Cells were incubated overnight at 37° C. in 5% CO2. Then 1 mL of fresh media was added with DMSO, OGM, or positive control (Erastin; APExBIO Technology, LLC, B1524) and cells incubated for 3 days. On the third day, all media was removed, cells were rinsed with 1×PBS, PBS was removed, and 200 μL of 1× Passive Lysis Buffer (Promega™, E1941) was added to each well. […]. Subsequently, 20 μL of lysate was added to 100 μL CellTiter-Glo™ reagent on a LUMITRAC 200 plate (Greiner™ bio-one, 82050-726). Plates were briefly spun down and read on a GloMax-Multi Detection System (Promega™).
(§3) The cells listed in the tables above were incubated with OGM2 at 2 μM or 10 μM for 72 hours under standard cell culture conditions, and relative cell number was assessed using Cell Titer-Glo Luminescent Cell Viability Assay (Promega™) following the manufacturer's instructions. Luminescence was determined using a Cytation 5 reader and Gen5 software package (BioTek™). RNA expression of GPR68 and GPR4 in the corresponding cancer cell lines are listed, according to the publicly available The Human Protein Atlas version 22.0 and Ensembl version 103.38 (see proteinatlas.org). The consensus normalized expression value (“nTPM”=normalize transcript per million) was calculated as the maximum nTPM value for each gene in the two data sources.

The subject of a further assay is Panc02. As to the kind of experiment: Cell cycle analysis (propidium iodide flow cytometry). The format is cell-based, mouse. Particulars: 3 Gy radiation in combination with OGM. Here is the method: Where appropriate, ANOVA, or student's T-test were conducted in PRISM. Chi squared T(X) was used for Liperfluo analysis. A value T(X)>4 implies that the two distributions are different with a p<0.01 (99% confidence). For drug interaction and therapeutic interaction, the coefficient of drug interaction (CDI) was calculated as follows: CDI=AB/(A×B). According to the impact of each group, AB is the value of combined treatment and A or B is the value of the single agent group to control group.
Both radiation and ferroptosis are known to induce G2/M arrest. Therefore, cells were treated with OGM2 and/or 3 Gy radiation. Media was then replaced, and cells were maintained for 24 hours. Cells were then trypsinized, pelleted, and fixed overnight in 70% Methanol at 4° C. Samples were then washed twice with cold PBS before being incubated with 10 mg/ml RNase A and 500 μg/ml propidium iodide in PBS in the dark for 30 minutes at room temperature. Cell cycle progression was determined by Flow cytometry using a LSR II from BD. FIG. 96A presents a cell cycle analysis of OGM2 treatment and irradiated Panc02 cells.

The test system of another assay is HCT 116. As to the kind of experiment: Cell Titer-Glo viability, Colorectal adenocarcinoma. As to conditions: 72 hours. The assay is classed as cell-based. As for the experimental part:
as §1, §2, §3
Background: In ATP-based viability assays light output follows the ATP content of the culture.

In another assay the test system is RKO. The description is as above. The assay is classed as cell-based. Here is the method:
as §1, §2, §3

T1 sequence (O43613 whole entry): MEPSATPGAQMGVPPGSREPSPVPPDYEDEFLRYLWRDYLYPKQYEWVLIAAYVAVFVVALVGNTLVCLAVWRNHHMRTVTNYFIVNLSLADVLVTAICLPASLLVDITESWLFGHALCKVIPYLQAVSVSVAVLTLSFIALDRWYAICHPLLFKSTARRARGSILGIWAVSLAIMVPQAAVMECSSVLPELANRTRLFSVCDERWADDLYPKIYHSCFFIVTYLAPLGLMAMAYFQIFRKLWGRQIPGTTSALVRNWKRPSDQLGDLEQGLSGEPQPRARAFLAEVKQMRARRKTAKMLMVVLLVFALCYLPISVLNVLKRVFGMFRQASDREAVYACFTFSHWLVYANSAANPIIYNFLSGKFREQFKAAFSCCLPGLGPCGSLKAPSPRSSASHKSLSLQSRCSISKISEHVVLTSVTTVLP
T12 sequence (P41586 21-468): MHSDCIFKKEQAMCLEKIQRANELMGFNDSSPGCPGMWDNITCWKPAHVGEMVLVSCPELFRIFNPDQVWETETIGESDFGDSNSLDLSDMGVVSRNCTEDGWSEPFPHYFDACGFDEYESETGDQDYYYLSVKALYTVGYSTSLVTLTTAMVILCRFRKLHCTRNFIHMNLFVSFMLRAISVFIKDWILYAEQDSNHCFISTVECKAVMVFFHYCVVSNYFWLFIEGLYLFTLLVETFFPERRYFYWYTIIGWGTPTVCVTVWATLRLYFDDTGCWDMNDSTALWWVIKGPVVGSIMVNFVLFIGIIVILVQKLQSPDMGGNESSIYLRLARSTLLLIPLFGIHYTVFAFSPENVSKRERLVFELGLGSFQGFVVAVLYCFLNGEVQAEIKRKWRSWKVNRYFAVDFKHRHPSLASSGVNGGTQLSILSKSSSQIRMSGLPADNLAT
T2 sequence (P00519 242-493 limits assumed): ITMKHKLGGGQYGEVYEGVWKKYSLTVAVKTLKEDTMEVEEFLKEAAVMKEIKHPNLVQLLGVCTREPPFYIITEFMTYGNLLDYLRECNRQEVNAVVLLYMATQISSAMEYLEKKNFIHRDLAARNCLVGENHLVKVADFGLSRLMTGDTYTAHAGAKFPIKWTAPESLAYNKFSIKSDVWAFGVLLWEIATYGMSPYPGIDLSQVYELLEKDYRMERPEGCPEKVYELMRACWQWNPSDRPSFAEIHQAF
Sequence of CSNK2A2 (P19784 whole entry): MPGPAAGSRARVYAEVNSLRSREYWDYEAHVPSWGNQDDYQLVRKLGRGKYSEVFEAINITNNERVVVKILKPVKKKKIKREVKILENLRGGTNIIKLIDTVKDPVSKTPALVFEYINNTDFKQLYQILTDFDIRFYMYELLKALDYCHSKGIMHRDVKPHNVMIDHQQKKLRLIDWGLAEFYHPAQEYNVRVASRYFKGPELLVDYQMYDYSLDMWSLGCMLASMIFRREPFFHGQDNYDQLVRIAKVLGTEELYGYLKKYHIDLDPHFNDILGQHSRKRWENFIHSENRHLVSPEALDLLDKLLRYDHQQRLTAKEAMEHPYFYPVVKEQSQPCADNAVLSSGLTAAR

`CCc1ccc2c(c1)C1(NN=C(c3cccc4ccccc34)S1)C(=O)N2` (stereo not shown) [OGM1, 5-ethyl-5′-naphthalen-1-ylspiro[1H-indole-3,2′-3H-1,3,4-thiadiazole]-2-one]: the Antagonism on OX1 (10 uM) stood at 1.6; on MC2 (10 uM) it was 3.9; at GCGR (10 uM), 6.1; at PAC1 (10 uM), 5.8. For the same compound, the Agonism is recorded as 1.4 at OX1 (12.5 uM), 0.1 on MC2 (12.5 uM), −0.1 at GCGR (12.5 uM) and 0.9 at PAC1 (12.5 uM). The remaining binding at 10 µM is 100% on ABL1-nonphosphorylated; 92% at CDC2L1; 94% on PRKCI; 84% on IGF1R; 83% at NEK1; 78% on GSK3A. The remaining binding at 10 µM at CSNK2A2 is 93%; on DYRK1A, 39%; on ROCK1, 71%.

Consider `CCc1ccc2c(c1)C1(NN=C(c3ccccc3)S1)C(=O)N2` (stereo not shown) [OGM2], for which the results for the Class entry with NCI-H460, with RKO and in the assay with RKO (Table 13) were “Sensitive (Sensitive (LC50=2 to 10 μM))”, “Mildly” and “Low”, respectively. Moreover, the figures for the “% Survival 2 μM OGM” value in the assay on NCI-H460 (72 hours), in the assay with HCT 116 and in the assay with RKO (72 hours) were 51.7%, 44.5% and 92.4%, respectively. The “% Survival 10 μM OGM” value in the assay on NCI-H460 (72 hours) is reported as 26.5%; in the assay on HCT 116 it was 32.7%; in the assay on RKO (72 hours), 57.6%. For the same compound, the CC50 in the assay with NCI-H460 (Homo sapiens, NCI-H460, 72 hours, read-out: LC50 (the source's name)) was 2 to 10 µM; in the assay on HCT 116 (Homo sapiens, HCT-116, read-out: LC50 (the source's name)), < 2 µM; with RKO (Homo sapiens, RKO, 72 hours, read-out: LC50 (the source's name)), > 10 µM. Besides, in the assay on Panc02, the “coefficient of drug interaction (CDI), G2 phase fraction” value came out at 0.689. In the assay with Panc02, the “increase in the G2 phase fraction” value is 120%.
